According to patent US7749698B2, “p53 wild-type as biomarker for the treatment with mTOR inhibitors in combination with a cytotoxic agent” (Novartis AG, priority 2004, dated 2010):

Experiments:
[1] = system: p53 (TP53) wild-type human adenocarcinoma A549 (CCL-185) tumor cells; test: YO-PRO cell death/cytotoxicity assay, gemcitabine combination; format: cell-based; settings: 20 nM with gemcitabine 5 to 17.5 nM, 72 hours, p<0.05, ANOVA with Tukey test
Procedure: (§1) p53 (TP53) wild-type human adenocarcinoma A549 (CCL-185) tumor cells (American Type Culture Collection, Rockville, Md., USA) are seeded at a density of 2×10^3 cells/100 μl per well in 96-well plates and incubated for 24 hours at 37° C. and 5% CO2. Cells are incubated with suboptimal concentrations of gemcitabine (e.g. 5 to 17.5 nM) either in combination with 20 nM 40-O-(2-hydroxyethyl) rapamycin or with the vehicle-control DMSO for an additional 72 hours. YO-PRO dye (YO-PRO^R-1 iodide [491/509], cat #Y3603, Molecular Probes) is added to the cells and a Cytofluor II Fluorescence plate reader is used to determine cell death or cytotoxicity and, after cell lysis, the relative cell proliferation.

[2] = system: MDA-MB231 human breast carcinoma cells; test: as above; format: cell-based; settings: MDA-MB231, p53 mutated/deficient; 20 nM with gemcitabine
Procedure: as §1
(§2) This procedure is repeated however with the use of p53 (TP53) mutated/deficient tumor cell lines, e.g. PC3M human prostate carcinoma cells (seeded at a density of 0.8×10^3 cells/100 μl) or MDA-MB231 human breast carcinoma cells (seeded at a density of 2×10^3 cells/100 μl; HTB-26; American Type Culture Collection).

[3] = system: PC3M human prostate carcinoma cells; test: as above; format: cell-based; settings: p53 mutated/deficient, 20 nM with gemcitabine
Procedure: as §1, §2

[4] = system: A549 cells; test: PARP cleavage immunoblot, gemcitabine combination; format: cell-based, human; settings: 20 nM with gemcitabine 5 to 12.5 nM, 72 hours, compared to gemcitabine or the mTOR inhibitor alone
Procedure: A549 cells are seeded at a density of 0.1×10^6 cells/10 ml per 10 cm plates and incubated for 24 hours at 37° C. and 5% CO2. Cells are incubated with suboptimal concentrations of gemcitabine (e.g. 5 to 12.5 nM) either in combination with 20 nM 40-O-(2-hydroxyethyl) rapamycin or with the vehicle-control DMSO for an additional 72 hours. Cell extracts corresponding to 50 μg total protein are resolved by 8% SDS-PAGE electrophoresis and immunoblot analysis is performed using rabbit polyclonal antibodies raised against Poly (ADP-Ribose) Polymerase (PARP) (Cell Signalling Technology catalogue #9542). […] This confirms the above results that, in the p53 (TP53) wild-type A549 cells, the presence of the mTOR inhibitor results in higher levels of cell death at suboptimal gemcitabine concentrations.

[5] = system: p53 (TP53) wild-type human lung adenocarcinoma A549 cells; test: YO-PRO cell death/cytotoxicity assay, cisplatin combination; format: cell-based
Procedure: (§3) p53 (TP53) wild-type human lung adenocarcinoma A549 cells are seeded at a density of 5×10^3 cells/100 μl per well in 96-well plates and incubated for 24 hours at 37° C. and 5% CO2. Cells are incubated with suboptimal concentrations of cisplatin (e.g. 3 to 10 μg/ml) either in combination with 20 nM 40-O-(2-hydroxyethyl) rapamycin or with the vehicle-control DMSO for an additional 24 hours. The YO-PRO® assay is performed as above to determine cell death or cytotoxicity and, after cell lysis, the relative cell proliferation. […] In the latter case, incubation with compounds is for 30 hours.

[6] = system: PC3M; test: as above; format: cell-based, human; settings: p53 mutated/deficient, 20 nM with cisplatin, 30 hours
Procedure: as §3
(§4) This procedure is repeated however with the use of p53 (TP53) mutated/deficient tumor cell lines, e.g. PC3M (seeded at a density of 3×10^3 cells/100 μl) or DU145 (seeded at a density of 5×10^3 cells/100 μl:HTB-81; American Type Culture Collection). The incubation with compounds in this case is 22 hours for DU145 or 30 hours for PC3M.

[7] = system: DU145; test: as above; format: cell-based; settings: DU145, p53 mutated/deficient; 20 nM with cisplatin, 22 hours
Procedure: as §3, §4

[8] = system: A549 cells; test: PARP cleavage immunoblot, cisplatin combination; format: cell-based, human; settings: 20 nM with cisplatin 0.5 to 4 μg/ml, 24 hours, compared to cisplatin or the mTOR inhibitor alone
Procedure: A549 cells are seeded at a density of 0.1×10^6 cells/10 ml per 10 cm plates and incubated for 24 hours at 37° C. and 5% CO2. Cells are incubated with suboptimal concentrations of cisplatin (e.g. 0.5 to 4 μg/ml) either in combination with 20 nM 40-O-(2-hydroxyethyl) rapamycin or with the vehicle-control DMSO for an additional 24 hours. Cell extracts corresponding to 50 μg total protein are resolved on 8% SDS-PAGE electrophoresis and immunoblot analysis is performed using rabbit polyclonal antibodies raised against Poly (ADP-Ribose) Polymerase (PARP) and p53. […] This confirms the above results that, in the p53 (TP53) wild-type A549 cells, the presence of the mTOR inhibitor results in higher levels of cell death at suboptimal cisplatin concentrations.

[9] = system: p53 (TP53) wild-type A549 cells; test: p21 and Bax immunoblot, cisplatin with or without mTOR inhibitor; format: cell-based, human; settings: for Bax protein expression: either agent alone or in combination
Procedure: (§5) p53 (TP53) wild-type A549 and MCF7 cells are seeded at a density of 0.3×10^6 and 0.4×10^6 cells/4 ml per 6 cm plates, respectively, and incubated for 24 hours at 37° C. and 5% CO2. Cells are incubated with suboptimal concentrations of cisplatin (e.g. 0.5 to 4 μg/ml) either in combination with 20 nM 40-O-(2-hydroxyethyl) rapamycin or with the vehicle-control DMSO for an additional 24 hours and 30 hours, respectively. Cell extracts corresponding to 30 μg total protein are resolved on 15% SDS-PAGE electrophoresis and immunoblot analysis is performed using mouse monoclonal antibodies raised against p21 (Oncogene Research Products, Clone EA10, catalogue #OP64). […] Strikingly, the presence of the mTOR inhibitor, e.g. 40-O-(2-hydroxyethyl) rapamycin, attenuates cisplatin-induced upregulation of p21 protein expression. In contrast, Bax protein expression, a p53-regulated pro-apoptotic protein, is unaffected by either agent alone or in combination. In this assay cytotoxic-induced p21 protein expression is inhibited by the presence of the mTOR inhibitor. This provides an explanation for the enhanced cell killing/apoptotic response observed with cisplatin and mTOR inhibitor combinations.

[10] = system: p53 (TP53) wild-type MCF7 cells; test: as above; format: cell-based, human; settings: for Bax protein expression: either agent alone or in combination
Procedure: as §5

[11] = system: p53 (TP53) wild-type A549 cells; test: p53 siRNA transfection, cisplatin treatment, p53/p21/PARP immunoblot; format: cell-based, human; settings: A549 untransfected or LacZ siRNA control transfected
Procedure: p53 (TP53) wild-type A549 cells are seeded at a density of 0.1×10^6 cells/5 ml per 6 cm plates and incubated for 24 hours at 37° C. and 5% CO2. Cells are left untransfected or transiently transfected with 100 nM siRNA targeting either human p53 (Accession number: NM000546; target sequence: 5′-GCA TCT TAT CCG AGT GGA A-3′) or LacZ (Accession number: M55068; target sequence: 5′-GCGGCTGCCGGAATTTACCTT-3′) control siRNA, using Oligofectamine (Invitrogen, Cat # 12252-011). After 30 hours incubation, cells are incubated with increasing concentrations of cisplatin (e.g. 0.5 to 6 μg/ml) for an additional 24 hours. Cell extracts corresponding to 30 μg (p21) and 50 μg (p53 and PARP) total protein are resolved on 15% (p21) and 10% (p53 and PARP) SDS-PAGE electrophoresis, and immunoblot analysis is performed using mouse monoclonal and rabbit polyclonal antibodies raised against p21 and p53/PARP, respectively. […] The same effects on p53 expression, p21 expression and PARP cleavage are also observed with two other siRNA's targeting human p53 (target sequences: 5′-GGA AGA CTC CAG TGG TAA T-3′ and 5′-GAT ATT GAA CAA TGG TTC A-3′).

[12] = system: p53 (TP53) wild-type A549 cells; test: p21 siRNA transfection, cisplatin treatment, p21/PARP immunoblot; format: cell-based, human; settings: A549 untransfected or LacZ siRNA control transfected; cisplatin 1 to 2 μg/ml, 24 hours
Procedure: p53 (TP53) wild-type A549 cells are seeded at a density of 0.1×10^6 cells/5 ml per 6 cm plates and incubated for 24 hours at 37° C. and 5% CO2. Cells are left untransfected or transiently transfected with 100 nM siRNA targeting either p21 (Accession number: NM000389; target sequence: 5′-GTG GAC AGC GAG CAG CTG A-3′) or LacZ (as above) control siRNA, using Oligofectamine (Invitrogen, Cat # 12252-011). After 30 hours incubation, cells are incubated with suboptimal concentrations of cisplatin (e.g. 1 to 2 μg/ml) for an additional 24 hours. Cell extracts corresponding to 30 μg (p21) and 50 μg (PARP) total protein are resolved on 15 and 10% SDS-PAGE electrophoresis, respectively, and immunoblot analysis is performed using mouse monoclonal and rabbit polyclonal antibodies raised against p21 and PARP, respectively.

[13] = cisplatin 0.5 to 6 μg/ml, 24 hours

SMILES	potentiation of the cell killing effect of suboptimal concentrations of gemcitabine [1]	potentiation of cell death [2]	potentiation of cell death [3]	PARP cleavage (a marker of apoptosis) at suboptimal gemcitabine concentrations [4]	potentiation of the cell killing effect of suboptimal concentrations of cisplatin ([5]; 20 nM with cisplatin 3 to 10 μg/ml, 24 hours, p<0.05, ANOVA with Tukey test)	interaction between RAD001 and cisplatin (two-way ANOVA) ([5]; p<0.001)	potentiation of cell death [6]	potentiation of cell death [7]	PARP cleavage (a marker of apoptosis) at suboptimal cisplatin concentrations [8]	cisplatin-induced upregulation of p21 protein expression ([9]; 20 nM with cisplatin 0.5 to 4 μg/ml, 24 hours)	Bax protein expression [9]	cisplatin-induced upregulation of p21 protein expression ([10]; 20 nM with cisplatin 0.5 to 4 μg/ml, 30 hours)	Bax protein expression [10]	p21 protein expression ([9]; cisplatin alone 0.5 to 4 μg/ml, 24 hours)	p21 protein expression ([10]; cisplatin alone 0.5 to 4 μg/ml, 30 hours)	PARP cleavage (a marker of apoptosis) ([11]; at higher cisplatin concentrations (2 to 6 μg/ml))	p21 protein expression [11, 13]	p53 protein expression [11, 13]	PARP cleavage (a marker of apoptosis) [12]	p21 protein expression [12]
CO[C@H]1C[C@@H]2CC[C@@H](C)[C@@](O)(O2)C(=O)C(=O)N2CCCC[C@H]2C(=O)O[C@H]([C@H](C)C[C@@H]2CC[C@@H](OCCO)[C@H](OC)C2)CC(=O)[C@H](C)/C=C(\C)[C@@H](O)[C@@H](OC)C(=O)[C@H](C)C[C@H](C)/C=C/C=C/C=C/1C [40-O-(2-hydroxyethyl) rapamycin]	statistically significant potentiation	No striking or consistent potentiation	No striking or consistent potentiation	increased PARP cleavage	statistically significant potentiation	highly significant	No striking or consistent potentiation	No striking or consistent potentiation	increased PARP cleavage	attenuates	unaffected	attenuates	unaffected							
N.N.[Cl][Pt][Cl] [cisplatin]											unaffected		unaffected	induces increased p21 protein expression in a concentration-dependent manner	induces increased p21 protein expression in a concentration-dependent manner	evidence of PARP cleavage	induces p53 and p21 protein expression in a concentration-dependent manner	induces p53 and p21 protein expression in a concentration-dependent manner	little evidence of PARP cleavage	induces p21 protein expression in a concentration-dependent manner
